For one assay, the target named is SETD2(h) (Homo sapiens, UniProt Q9BYW2). Nature of the assay: Epigenetic enzyme assay, Methyltransferases (MTs). The class given is biochemical. To be noted: for inhibition at 10 µM: read-out: % Inhibition of Control Values.
The target of assay [1] is DAPK3/ZIP (substrate histone H3 full length) (Homo sapiens, UniProt O43293). Put plainly: Epigenetic enzyme assay, Kinases. The class given is biochemical. The following applies: read-out: % Inhibition of Control Values.
In a further assay the target is T1, HDAC11 (h) (Homo sapiens, UniProt Q96DB2).
T1 sequence (Q96DB2 1-347): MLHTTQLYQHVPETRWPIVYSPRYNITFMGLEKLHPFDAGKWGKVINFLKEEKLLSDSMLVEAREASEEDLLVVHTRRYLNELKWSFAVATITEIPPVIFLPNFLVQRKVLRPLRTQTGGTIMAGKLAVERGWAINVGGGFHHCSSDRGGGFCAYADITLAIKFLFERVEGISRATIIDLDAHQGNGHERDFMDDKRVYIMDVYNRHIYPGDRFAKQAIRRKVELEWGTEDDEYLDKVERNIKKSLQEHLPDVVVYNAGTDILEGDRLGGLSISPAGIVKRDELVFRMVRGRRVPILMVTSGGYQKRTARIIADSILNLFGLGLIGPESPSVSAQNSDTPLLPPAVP
Nature of the assay: Epigenetic enzyme assay, Histone deacetylase (HDACs). The class given is biochemical. The following applies: read-out: % Inhibition of Control Values.

In another assay the target is T2, JMJD1A (h) (Homo sapiens, UniProt Q9Y4C1).
T2 sequence (Q9Y4C1 1-1321): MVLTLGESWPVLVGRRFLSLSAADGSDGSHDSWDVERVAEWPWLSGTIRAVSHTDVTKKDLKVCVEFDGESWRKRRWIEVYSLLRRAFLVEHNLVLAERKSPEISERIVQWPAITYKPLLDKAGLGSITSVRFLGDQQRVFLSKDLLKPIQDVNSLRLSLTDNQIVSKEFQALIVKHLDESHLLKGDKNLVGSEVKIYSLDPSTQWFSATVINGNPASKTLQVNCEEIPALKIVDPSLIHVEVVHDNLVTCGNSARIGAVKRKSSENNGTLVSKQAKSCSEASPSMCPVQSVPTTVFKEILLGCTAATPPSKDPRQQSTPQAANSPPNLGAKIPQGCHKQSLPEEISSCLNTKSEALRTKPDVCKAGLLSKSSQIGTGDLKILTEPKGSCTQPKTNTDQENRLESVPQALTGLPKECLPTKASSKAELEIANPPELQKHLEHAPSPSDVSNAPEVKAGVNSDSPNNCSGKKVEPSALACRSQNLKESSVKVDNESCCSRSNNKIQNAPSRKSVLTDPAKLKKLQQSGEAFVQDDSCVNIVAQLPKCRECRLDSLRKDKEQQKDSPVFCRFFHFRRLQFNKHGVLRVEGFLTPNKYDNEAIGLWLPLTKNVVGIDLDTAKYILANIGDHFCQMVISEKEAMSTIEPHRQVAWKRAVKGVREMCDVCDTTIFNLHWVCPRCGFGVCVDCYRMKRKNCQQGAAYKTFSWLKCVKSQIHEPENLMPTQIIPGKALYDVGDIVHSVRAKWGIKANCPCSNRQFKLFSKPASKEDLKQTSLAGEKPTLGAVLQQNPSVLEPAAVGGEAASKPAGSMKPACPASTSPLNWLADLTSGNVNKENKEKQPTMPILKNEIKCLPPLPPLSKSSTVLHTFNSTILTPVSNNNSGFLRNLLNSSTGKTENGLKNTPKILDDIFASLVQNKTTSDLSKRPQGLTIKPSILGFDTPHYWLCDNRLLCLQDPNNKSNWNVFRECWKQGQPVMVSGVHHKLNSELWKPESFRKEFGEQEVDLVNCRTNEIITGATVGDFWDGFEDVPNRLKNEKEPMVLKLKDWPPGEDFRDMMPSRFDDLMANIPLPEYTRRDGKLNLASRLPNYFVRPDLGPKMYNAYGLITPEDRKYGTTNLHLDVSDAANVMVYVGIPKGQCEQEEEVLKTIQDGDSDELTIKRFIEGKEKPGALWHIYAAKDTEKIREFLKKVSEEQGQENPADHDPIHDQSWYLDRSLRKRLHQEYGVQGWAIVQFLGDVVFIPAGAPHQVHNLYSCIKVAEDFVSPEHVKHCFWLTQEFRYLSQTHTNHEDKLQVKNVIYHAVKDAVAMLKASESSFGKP
Put plainly: Epigenetic enzyme assay, Demethylases (KDMs). The assay is classed as biochemical. The following applies: for inhibition at 10 µM: read-out: % Inhibition of Control Values.

A further assay relates to IM-9. Put plainly: OncoPanel cell proliferation assay (10-day). To be noted: for EC50 / GI50 / IC50: Homo sapiens, IM-9, Myeloma; for EC50: read-out: Cell Count EC50; for GI50: read-out: Cell Count GI50; for IC50: read-out: Cell Count IC50. The class given is cell-based, human.
The target in the next assay is T3, CBX7 (h) chromodomain (Homo sapiens, UniProt O95931).
T3 construct: Recognition and specificity determinants of the human cbx chromodomains; Eurofins CEREP (France), contract laboratory
T3 sequence (O95931 11-69 limits assumed): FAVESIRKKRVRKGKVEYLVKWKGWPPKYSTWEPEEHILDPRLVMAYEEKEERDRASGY
Put plainly: Epigenetic binding assay, Chromodomain. The following applies: read-out: % Inhibition of Control Specific Binding.

The test system of assay [2] is Rat L6 skeletal muscle cells. Put plainly: [3H]-2-Deoxy-D-glucose uptake. The assay is classed as cell-based. The following applies: 10 μM; assay year 2016. How it is done: The in vitro pharmacological studies were conducted by Eurofins PanLab (Taiwan) using the parameters shown in Table 13 with respect to appropriate literature references.
Assay [3] addresses EZH2/EED/SUZ12 (h) (PRC2 complex) (Homo sapiens, UniProt Q15910). Put plainly: Epigenetic enzyme assay, Methyltransferases (MTs). The following applies: read-out: % Inhibition of Control Values. The class given is biochemical.
A further assay deals with HL-60 leukemia cells. Nature of the assay: In vitro cell viability assay (intracellular ATP, 72 hour). The assay is classed as cell-based. The following applies: HL-60 (TB) (Leukemia); 10 μM.
Assay [4] concerns the target Aurora B (h) (substrate histone H3 full length) (Homo sapiens, UniProt Q96GD4). Put plainly: Epigenetic enzyme assay, Kinases. The class given is biochemical. To be noted: read-out: % Inhibition of Control Values.
The subject of the next assay is H3K79 me2. Nature of the assay: Cell-based detection methyl modifications. To be noted: read-out: % Inhibition of Control Values.

From patent US11331299B2, “Medicinal use of serrulatane diterpenes” (The University of Sydney, priority 2016, dated 2022) come the findings set out here.

Chain of DAPK3/ZIP (substrate histone H3 full length) (O43293 whole entry): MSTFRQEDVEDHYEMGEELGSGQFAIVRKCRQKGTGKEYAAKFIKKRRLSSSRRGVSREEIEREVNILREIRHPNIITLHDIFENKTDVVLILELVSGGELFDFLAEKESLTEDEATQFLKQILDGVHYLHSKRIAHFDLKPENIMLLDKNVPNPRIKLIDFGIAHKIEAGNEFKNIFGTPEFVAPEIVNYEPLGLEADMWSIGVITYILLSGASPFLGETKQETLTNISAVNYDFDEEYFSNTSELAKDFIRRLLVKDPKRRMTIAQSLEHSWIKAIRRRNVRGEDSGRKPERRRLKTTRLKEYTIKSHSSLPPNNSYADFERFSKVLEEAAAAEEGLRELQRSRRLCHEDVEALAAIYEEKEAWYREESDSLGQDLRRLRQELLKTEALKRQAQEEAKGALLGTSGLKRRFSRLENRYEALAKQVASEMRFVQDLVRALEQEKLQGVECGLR
Chain of SETD2(h) (Q9BYW2 whole entry): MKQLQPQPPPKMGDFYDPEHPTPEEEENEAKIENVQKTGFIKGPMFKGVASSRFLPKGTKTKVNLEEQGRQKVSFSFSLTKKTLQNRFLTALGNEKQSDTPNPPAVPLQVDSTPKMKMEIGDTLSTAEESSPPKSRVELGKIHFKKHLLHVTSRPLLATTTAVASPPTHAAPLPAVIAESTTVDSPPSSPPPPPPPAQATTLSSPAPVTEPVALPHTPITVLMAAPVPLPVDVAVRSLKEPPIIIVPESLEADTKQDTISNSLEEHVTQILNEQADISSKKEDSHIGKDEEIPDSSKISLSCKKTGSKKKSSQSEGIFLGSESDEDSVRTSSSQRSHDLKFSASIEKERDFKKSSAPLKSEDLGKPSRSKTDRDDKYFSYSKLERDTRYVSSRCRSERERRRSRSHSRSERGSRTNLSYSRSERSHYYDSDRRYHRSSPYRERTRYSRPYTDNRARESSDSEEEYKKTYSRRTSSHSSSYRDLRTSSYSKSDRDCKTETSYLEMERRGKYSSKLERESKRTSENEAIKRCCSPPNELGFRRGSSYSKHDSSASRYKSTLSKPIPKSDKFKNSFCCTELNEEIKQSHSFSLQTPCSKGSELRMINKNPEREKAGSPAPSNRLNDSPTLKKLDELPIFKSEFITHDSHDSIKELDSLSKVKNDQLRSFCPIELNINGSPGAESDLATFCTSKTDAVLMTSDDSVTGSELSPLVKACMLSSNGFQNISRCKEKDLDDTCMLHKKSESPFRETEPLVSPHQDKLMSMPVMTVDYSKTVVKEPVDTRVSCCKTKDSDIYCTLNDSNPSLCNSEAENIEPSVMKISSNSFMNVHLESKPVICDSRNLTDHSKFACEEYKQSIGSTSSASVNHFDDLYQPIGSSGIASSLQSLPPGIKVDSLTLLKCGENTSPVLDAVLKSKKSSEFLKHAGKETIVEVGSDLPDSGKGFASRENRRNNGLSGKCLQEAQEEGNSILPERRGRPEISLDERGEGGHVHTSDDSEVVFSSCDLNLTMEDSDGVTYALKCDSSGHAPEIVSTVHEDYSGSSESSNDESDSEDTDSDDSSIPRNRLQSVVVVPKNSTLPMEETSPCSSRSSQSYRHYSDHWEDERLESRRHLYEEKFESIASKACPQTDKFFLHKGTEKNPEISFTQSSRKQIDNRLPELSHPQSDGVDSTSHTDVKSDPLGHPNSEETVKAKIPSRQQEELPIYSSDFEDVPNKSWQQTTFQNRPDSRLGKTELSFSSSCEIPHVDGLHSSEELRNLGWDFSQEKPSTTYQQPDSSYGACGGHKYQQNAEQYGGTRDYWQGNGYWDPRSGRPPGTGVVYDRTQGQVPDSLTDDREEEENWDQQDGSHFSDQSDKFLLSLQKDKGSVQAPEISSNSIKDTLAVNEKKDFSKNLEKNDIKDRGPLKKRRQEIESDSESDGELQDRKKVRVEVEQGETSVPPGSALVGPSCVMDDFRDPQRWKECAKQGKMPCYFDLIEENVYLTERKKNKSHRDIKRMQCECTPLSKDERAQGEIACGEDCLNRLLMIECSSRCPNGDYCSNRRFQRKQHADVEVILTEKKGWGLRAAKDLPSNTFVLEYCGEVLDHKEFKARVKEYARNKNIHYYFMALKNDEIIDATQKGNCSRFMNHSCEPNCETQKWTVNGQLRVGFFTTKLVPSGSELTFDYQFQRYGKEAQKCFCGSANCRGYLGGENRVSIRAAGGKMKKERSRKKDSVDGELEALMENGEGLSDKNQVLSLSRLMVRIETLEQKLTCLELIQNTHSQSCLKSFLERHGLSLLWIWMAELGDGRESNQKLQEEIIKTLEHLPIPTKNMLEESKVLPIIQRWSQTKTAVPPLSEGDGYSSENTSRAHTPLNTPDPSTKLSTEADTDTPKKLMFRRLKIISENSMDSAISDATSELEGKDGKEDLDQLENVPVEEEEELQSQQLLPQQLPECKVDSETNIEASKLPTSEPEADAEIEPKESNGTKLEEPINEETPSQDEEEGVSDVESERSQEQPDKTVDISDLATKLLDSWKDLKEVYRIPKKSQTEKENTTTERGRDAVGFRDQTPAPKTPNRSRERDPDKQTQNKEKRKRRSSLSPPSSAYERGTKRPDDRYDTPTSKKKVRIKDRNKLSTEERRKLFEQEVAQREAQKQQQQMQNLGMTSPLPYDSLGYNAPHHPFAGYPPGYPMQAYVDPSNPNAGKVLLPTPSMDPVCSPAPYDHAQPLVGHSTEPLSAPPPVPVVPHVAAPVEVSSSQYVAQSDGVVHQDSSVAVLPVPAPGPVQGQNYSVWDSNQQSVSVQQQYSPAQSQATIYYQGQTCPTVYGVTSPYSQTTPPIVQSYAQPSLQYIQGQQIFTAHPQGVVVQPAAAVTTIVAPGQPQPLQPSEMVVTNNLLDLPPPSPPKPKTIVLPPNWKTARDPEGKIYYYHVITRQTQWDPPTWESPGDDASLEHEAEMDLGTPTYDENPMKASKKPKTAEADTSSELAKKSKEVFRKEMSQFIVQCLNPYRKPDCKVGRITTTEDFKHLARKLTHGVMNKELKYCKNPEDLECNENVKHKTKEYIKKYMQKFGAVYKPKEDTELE
Chain of EZH2/EED/SUZ12 (h) (PRC2 complex) (Q15910 whole entry): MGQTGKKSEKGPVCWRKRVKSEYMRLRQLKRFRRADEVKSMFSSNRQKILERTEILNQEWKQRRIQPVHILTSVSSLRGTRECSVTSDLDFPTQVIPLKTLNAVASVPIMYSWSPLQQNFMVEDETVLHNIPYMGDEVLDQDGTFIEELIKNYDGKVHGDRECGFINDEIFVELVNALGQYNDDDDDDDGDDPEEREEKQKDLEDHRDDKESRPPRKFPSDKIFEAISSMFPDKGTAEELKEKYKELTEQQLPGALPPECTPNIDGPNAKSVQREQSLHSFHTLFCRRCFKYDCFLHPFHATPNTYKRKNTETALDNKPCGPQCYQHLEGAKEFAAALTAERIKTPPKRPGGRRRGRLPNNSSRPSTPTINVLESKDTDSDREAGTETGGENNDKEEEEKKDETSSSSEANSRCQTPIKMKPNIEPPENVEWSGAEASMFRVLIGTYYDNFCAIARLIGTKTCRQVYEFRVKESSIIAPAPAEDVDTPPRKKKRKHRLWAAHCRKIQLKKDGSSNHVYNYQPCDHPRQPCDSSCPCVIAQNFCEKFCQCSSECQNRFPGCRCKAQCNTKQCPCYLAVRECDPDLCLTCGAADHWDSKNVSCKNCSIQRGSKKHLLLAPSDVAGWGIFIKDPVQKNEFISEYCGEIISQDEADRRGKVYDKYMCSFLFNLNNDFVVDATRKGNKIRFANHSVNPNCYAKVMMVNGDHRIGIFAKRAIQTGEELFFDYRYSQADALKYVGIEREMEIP
Chain of EZH2/EED/SUZ12 (h) (PRC2 complex) (O75530 whole entry partner): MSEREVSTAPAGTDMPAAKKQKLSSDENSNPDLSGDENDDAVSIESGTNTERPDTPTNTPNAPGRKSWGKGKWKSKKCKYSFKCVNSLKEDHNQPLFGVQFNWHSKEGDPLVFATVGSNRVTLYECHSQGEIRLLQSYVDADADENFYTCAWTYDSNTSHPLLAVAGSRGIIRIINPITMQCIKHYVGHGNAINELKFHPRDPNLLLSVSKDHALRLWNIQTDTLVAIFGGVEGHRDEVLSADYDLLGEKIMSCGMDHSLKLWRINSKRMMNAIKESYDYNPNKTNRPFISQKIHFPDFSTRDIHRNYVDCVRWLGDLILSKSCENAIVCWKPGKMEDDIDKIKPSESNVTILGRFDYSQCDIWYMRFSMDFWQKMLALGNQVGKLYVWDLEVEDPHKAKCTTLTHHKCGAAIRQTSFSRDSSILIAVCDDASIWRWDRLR
Chain of EZH2/EED/SUZ12 (h) (PRC2 complex) (Q15022 whole entry partner): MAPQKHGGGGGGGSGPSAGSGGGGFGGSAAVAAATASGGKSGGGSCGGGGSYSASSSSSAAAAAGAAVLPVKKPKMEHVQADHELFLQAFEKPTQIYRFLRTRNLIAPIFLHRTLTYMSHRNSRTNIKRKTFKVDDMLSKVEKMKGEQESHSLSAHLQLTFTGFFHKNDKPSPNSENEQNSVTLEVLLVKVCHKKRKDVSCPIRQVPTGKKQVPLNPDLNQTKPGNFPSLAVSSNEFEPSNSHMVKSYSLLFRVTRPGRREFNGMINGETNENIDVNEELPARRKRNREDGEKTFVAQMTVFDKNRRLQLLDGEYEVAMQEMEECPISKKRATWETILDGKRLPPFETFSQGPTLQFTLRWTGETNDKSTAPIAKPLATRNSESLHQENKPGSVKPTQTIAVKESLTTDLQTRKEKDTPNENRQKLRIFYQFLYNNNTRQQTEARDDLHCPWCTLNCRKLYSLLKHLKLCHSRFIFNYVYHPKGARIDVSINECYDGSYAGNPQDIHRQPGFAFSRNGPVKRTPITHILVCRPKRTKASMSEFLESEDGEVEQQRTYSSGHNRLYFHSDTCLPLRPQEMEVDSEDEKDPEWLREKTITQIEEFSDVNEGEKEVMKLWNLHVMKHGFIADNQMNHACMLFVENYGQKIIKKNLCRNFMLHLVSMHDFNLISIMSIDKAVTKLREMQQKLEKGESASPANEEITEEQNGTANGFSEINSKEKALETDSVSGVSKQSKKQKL

Regarding `CC(C)=CCC[C@H](CO)[C@@H]1CC[C@@H](C)c2c1cc(C)c(O)c2O` [Compound 1, 7,8,18-trihydroxyserrulat-14-ene], the inhibition at 10 µM at SETD2(h) was -9%; in assay [1] it was 4%; at HDAC11 (h), 27%; at JMJD1A (h) (10 μM) it was 80%; on CBX7 (h) chromodomain, 25%; in assay [3], 19%. Further, the inhibition at 10 µM in assay [4] is 6%; in the assay with H3K79 me2 it was -2%. The “% Inhibition of Control Values” at JMJD1A (h) (10 μM) was “significant inhibitory activity”. The IC50 at JMJD1A (h) (Table 11, inhibition/concentration-response curve) is 4.5 µM; in the assay with IM-9 it was 0.42 µM. In the assay on IM-9, the EC50 amounted to 0.42 µM. In addition, in the assay on IM-9, the GI50 is 0.42 µM. For the same compound, the “Relative cell count (%) Mean” value in the assay with IM-9 (IM-9, 3.00E+00 microM) is 0.1%; in the assay on IM-9 (IM-9, 3.00E+01 microM) it was 0.0%; with IM-9 (IM-9, 3.01E−01 microM), 97.5%; in the assay on IM-9 (IM-9, 3.01E−02 microM) it was 107.3%; in the assay on IM-9 (IM-9, 3.02E−03 microM), 102.8%; in the assay with IM-9 (IM-9, 9.49E+00 microM) it was 0.1%. Also, the “Relative cell count (%) Mean” value in the assay with IM-9 (IM-9, 9.51E−01 microM) amounted to 0.0%; in the assay on IM-9 (IM-9, 9.52E−02 microM), 97.7%; in the assay on IM-9 (IM-9, 9.53E−03 microM), 103.1%; with IM-9 (IM-9, 9.55E−04 microM), 94.9%. In assay [2], the “% Control Response, agonist (increase in 2-DG uptake relative to insulin response)” value is −61%. Moreover, the “% Cell growth” value in the assay on HL-60 leukemia cells is reported as −62%.

For the compound `CC(C)=CCC[C@H](C)[C@@H]1CC[C@@H](C)c2c1cc(C)c(O)c2O` [Compound 4, 7,8-dihydroxyserrulat-14-ene], in the assay on IM-9, the EC50 came out at 6.71 µM, the GI50 turned out to be 6.71 µM and the IC50 amounted to 6.71 µM. The “% Control Response, agonist (increase in 2-DG uptake relative to insulin response)” value in assay [2] was −45%. Also, the “% Cell growth” value in the assay with HL-60 leukemia cells is listed as −83%.

Regarding `CC(C)=CCC[C@@H]1COc2c(C)cc(O)c3c2[C@H]1CC[C@H]3C` [Compound 3, 5,18-epoxy-8-hydroxyserrulat-14-ene], the inhibition at 10 µM is -11% on SETD2(h); 8% in assay [1]; -130% at HDAC11 (h); -1% at JMJD1A (h) (10 μM); 43% at CBX7 (h) chromodomain; 4% in assay [3]. Moreover, the inhibition at 10 µM in [4] was -1%; in the assay with H3K79 me2, -5%. For the same compound, the “% Control Response, agonist (increase in 2-DG uptake relative to insulin response)” value in assay [2] is on record as −52%. Further, the “% Cell growth” value with HL-60 leukemia cells worked out at 138%.

For the compound `CC(C)=CCC[C@@H]1C(O)Oc2c(C)cc(O)c3c2[C@H]1CC[C@H]3C` (some centres unmarked) [Compound 2, 5,18-epoxyserrulat-14-en-8,18-diol], the inhibition at 10 µM at SETD2(h) is -4%; in assay [1] it was 9%; at HDAC11 (h) it was -47%; on JMJD1A (h) (10 μM), 37%; at CBX7 (h) chromodomain, 33%; in [3] it was 26%. Further, the inhibition at 10 µM is 4% in assay [4] and -16% in the assay with H3K79 me2. Moreover, the EC50 in the assay with IM-9 was found to be 3.92 µM. Besides, in the assay with IM-9, the GI50 turned out to be 3.92 µM. In addition, the IC50 in the assay with IM-9 turned out to be 3.92 µM. Moreover, the “% Cell growth” value in the assay with HL-60 leukemia cells is given as −35%.

Regarding `Nc1ncnc2c1ncn2[C@@H]1O[C@H](CSCC[C@H](N)C(=O)O)[C@@H](O)[C@H]1O` [SAH], the IC50 on SETD2(h) (read-out: Reference IC50) amounted to 1.2 µM.

The term inhibition denotes the relative decrease from the control value, in per cent. Broadly, the IC50 is the point on the concentration scale where inhibition reaches its midpoint. As usually defined, the EC50 is the concentration that produces a half-maximal response. Broadly, the GI50 is the concentration at which growth is held to half of that of the control.
